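These data come from cells grown in 96-well plates and exposed to compound for 48 hours at five concentrations. GI50 is the concentration that inhibits growth by half. TGI denotes the concentration required for complete inhibition of growth.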
Assays:
Experiment in all cases: NCI anticancer screen, dose series, 48 h
T-47D breast = system: T-47D breast
786-0 renal = system: 786-0 renal
SN12C renal = system: SN12C renal
SK-MEL-5 melanoma = system: SK-MEL-5 melanoma
SK-MEL-28 melanoma = system: SK-MEL-28 melanoma
IGROV1 ovarian = system: IGROV1 ovarian
HOP-62 NSCLC = system: HOP-62 NSCLC
OVCAR-5 ovarian = system: OVCAR-5 ovarian
UO-31 renal = system: UO-31 renal
COLO 205 colon = system: COLO 205 colon
MCF7 breast = system: MCF7 breast
SK-MEL-2 melanoma = system: SK-MEL-2 melanoma
HCC-2998 colon = system: HCC-2998 colon
SK-OV-3 ovarian = system: SK-OV-3 ovarian
PC-3 prostate = system: PC-3 prostate
NCI-H226 lung = system: NCI-H226 lung
SF-539 CNS = system: SF-539 CNS
NCI-H23 lung = system: NCI-H23 lung
M14 melanoma = system: M14 melanoma
RPMI-8226 leukemia = system: RPMI-8226 leukemia
U251 CNS = system: U251 CNS
TK-10 renal = system: TK-10 renal
HCT-15 colon = system: HCT-15 colon
HS 578T breast = system: HS 578T breast
NCI/ADR-RES ovarian = system: NCI/ADR-RES ovarian
UACC-257 melanoma = system: UACC-257 melanoma
MALME-3M melanoma = system: MALME-3M melanoma
EKVX NSCLC = system: EKVX NSCLC
NCI-H460 lung = system: NCI-H460 lung
SW-620 colon = system: SW-620 colon
MDA-MB-231 breast = system: MDA-MB-231 breast
CAKI-1 renal = system: CAKI-1 renal
A498 renal = system: A498 renal
HT29 colon = system: HT29 colon
HOP-92 NSCLC = system: HOP-92 NSCLC
K-562 leukemia = system: K-562 leukemia
SNB-19 CNS = system: SNB-19 CNS
DU-145 prostate = system: DU-145 prostate
NCI-H522 lung = system: NCI-H522 lung
KM12 colon = system: KM12 colon
LOX IMVI melanoma = system: LOX IMVI melanoma
OVCAR-8 ovarian = system: OVCAR-8 ovarian
OVCAR-3 ovarian = system: OVCAR-3 ovarian
A549 NSCLC = system: A549 NSCLC
SNB-75 CNS = system: SNB-75 CNS
SR leukemia = system: SR leukemia
MDA-MB-435 = system: MDA-MB-435
UACC-62 melanoma = system: UACC-62 melanoma
HCT-116 colon = system: HCT-116 colon
SF-295 CNS = system: SF-295 CNS
SF-268 CNS = system: SF-268 CNS
CCRF-CEM leukemia = system: CCRF-CEM leukemia
ACHN renal = system: ACHN renal
RXF 393 renal = system: RXF 393 renal
MOLT-4 leukemia = system: MOLT-4 leukemia
HL-60(TB) leukemia = system: HL-60(TB) leukemia
BT-549 breast = system: BT-549 breast
OVCAR-4 ovarian = system: OVCAR-4 ovarian

N[C@H]1C[C@@H]1c1ccc(-c2cccc(O)c2)cc1
GI50 (T-47D breast): 23 µM
TGI (T-47D breast): > 100 µM
GI50 (786-0 renal): 29.6 µM
TGI (786-0 renal): > 100 µM
GI50 (SN12C renal): 34.5 µM
TGI (SN12C renal): > 100 µM
GI50 (SK-MEL-5 melanoma): 15.5 µM
TGI (SK-MEL-5 melanoma): 30.2 µM
GI50 (SK-MEL-28 melanoma): 24.3 µM
TGI (SK-MEL-28 melanoma): 69.2 µM
GI50 (IGROV1 ovarian): 30.8 µM
TGI (IGROV1 ovarian): > 100 µM
GI50 (HOP-62 NSCLC): 28.3 µM
TGI (HOP-62 NSCLC): > 100 µM
GI50 (OVCAR-5 ovarian): 37.5 µM
TGI (OVCAR-5 ovarian): > 100 µM
GI50 (UO-31 renal): 17.7 µM
TGI (UO-31 renal): 82.4 µM
GI50 (COLO 205 colon): 29.2 µM
TGI (COLO 205 colon): > 100 µM
GI50 (MCF7 breast): 22.9 µM
TGI (MCF7 breast): > 100 µM
GI50 (SK-MEL-2 melanoma): 19 µM
TGI (SK-MEL-2 melanoma): 52.6 µM
GI50 (HCC-2998 colon): 20 µM
TGI (HCC-2998 colon): 67.2 µM
GI50 (SK-OV-3 ovarian): 25.1 µM
TGI (SK-OV-3 ovarian): > 100 µM
GI50 (PC-3 prostate): 26.4 µM
TGI (PC-3 prostate): > 100 µM
GI50 (NCI-H226 lung): > 100 µM
TGI (NCI-H226 lung): > 100 µM
GI50 (SF-539 CNS): 24.2 µM
TGI (SF-539 CNS): 98.4 µM
GI50 (NCI-H23 lung): 37.6 µM
TGI (NCI-H23 lung): > 100 µM
GI50 (M14 melanoma): 15.7 µM
TGI (M14 melanoma): 36.3 µM
GI50 (RPMI-8226 leukemia): 19 µM
TGI (RPMI-8226 leukemia): 63 µM
GI50 (U251 CNS): 34.7 µM
TGI (U251 CNS): > 100 µM
GI50 (TK-10 renal): 31.1 µM
TGI (TK-10 renal): > 100 µM
GI50 (HCT-15 colon): 26.7 µM
TGI (HCT-15 colon): > 100 µM
GI50 (HS 578T breast): 22.8 µM
TGI (HS 578T breast): > 100 µM
GI50 (NCI/ADR-RES ovarian): 36.8 µM
TGI (NCI/ADR-RES ovarian): > 100 µM
GI50 (UACC-257 melanoma): 23.4 µM
TGI (UACC-257 melanoma): 63.8 µM
GI50 (MALME-3M melanoma): 14.2 µM
TGI (MALME-3M melanoma): 44.9 µM
GI50 (EKVX NSCLC): 27.2 µM
TGI (EKVX NSCLC): > 100 µM
GI50 (NCI-H460 lung): 45.9 µM
TGI (NCI-H460 lung): > 100 µM
GI50 (SW-620 colon): 32.1 µM
TGI (SW-620 colon): > 100 µM
GI50 (MDA-MB-231 breast): 17.6 µM
TGI (MDA-MB-231 breast): 44 µM
GI50 (CAKI-1 renal): 22.4 µM
TGI (CAKI-1 renal): 82.9 µM
GI50 (A498 renal): 14.8 µM
TGI (A498 renal): 69.6 µM
GI50 (HT29 colon): 34.7 µM
TGI (HT29 colon): > 100 µM
GI50 (HOP-92 NSCLC): 11.9 µM
TGI (HOP-92 NSCLC): 72 µM
GI50 (K-562 leukemia): 21 µM
TGI (K-562 leukemia): 76.1 µM
GI50 (SNB-19 CNS): 53.8 µM
TGI (SNB-19 CNS): > 100 µM
GI50 (DU-145 prostate): 42.2 µM
TGI (DU-145 prostate): > 100 µM
GI50 (NCI-H522 lung): 15 µM
TGI (NCI-H522 lung): 35.1 µM
GI50 (KM12 colon): 29.2 µM
TGI (KM12 colon): 93.4 µM
GI50 (LOX IMVI melanoma): 14.8 µM
TGI (LOX IMVI melanoma): 29.7 µM
GI50 (OVCAR-8 ovarian): 34 µM
TGI (OVCAR-8 ovarian): > 100 µM
GI50 (OVCAR-3 ovarian): 38.9 µM
TGI (OVCAR-3 ovarian): > 100 µM
GI50 (A549 NSCLC): 50.6 µM
TGI (A549 NSCLC): > 100 µM
GI50 (SNB-75 CNS): 11.7 µM
TGI (SNB-75 CNS): 49 µM
GI50 (SR leukemia): 24.7 µM
TGI (SR leukemia): 65.2 µM
GI50 (MDA-MB-435): 22.6 µM
TGI (MDA-MB-435): 61.6 µM
GI50 (UACC-62 melanoma): 15.9 µM
TGI (UACC-62 melanoma): 35 µM
GI50 (HCT-116 colon): 25 µM
TGI (HCT-116 colon): > 100 µM
GI50 (SF-295 CNS): 28.1 µM
TGI (SF-295 CNS): > 100 µM
GI50 (SF-268 CNS): 27.5 µM
TGI (SF-268 CNS): > 100 µM
GI50 (CCRF-CEM leukemia): 29.3 µM
TGI (CCRF-CEM leukemia): > 100 µM
GI50 (ACHN renal): 23.2 µM
TGI (ACHN renal): 93.3 µM
GI50 (RXF 393 renal): 17.1 µM
TGI (RXF 393 renal): > 100 µM
GI50 (MOLT-4 leukemia): 22.3 µM
TGI (MOLT-4 leukemia): 74.5 µM
GI50 (HL-60(TB) leukemia): 17.6 µM
TGI (HL-60(TB) leukemia): 44.9 µM
GI50 (BT-549 breast): 22.4 µM
TGI (BT-549 breast): > 100 µM
GI50 (OVCAR-4 ovarian): 28.9 µM
TGI (OVCAR-4 ovarian): > 100 µM

From PubChem BioAssay (NCI)
